From PubChem BioAssay (NCI)
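These data come from cells grown in 96-well plates and exposed to compound for 48 hours at five concentrations. Abbreviation: GI50, concentration required for 50% inhibition of growth. TGI: concentration producing complete growth inhibition.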

How the values were obtained:
Test in all cases: NCI anticancer screen, dose series, 48 h
[1] = test system: MOLT-4 leukemia
[2] = test system: LOX IMVI melanoma
[3] = test system: HCT-116 colon
[4] = test system: OVCAR-3 ovarian
[5] = test system: OVCAR-5 ovarian
[6] = test system: OVCAR-8 ovarian
[7] = test system: UACC-257 melanoma
[8] = test system: HOP-92 NSCLC
[9] = test system: M14 melanoma
[10] = test system: T-47D breast
[11] = test system: HCT-15 colon
[12] = test system: HT29 colon
[13] = test system: ACHN renal
[14] = test system: SR leukemia
[15] = test system: CCRF-CEM leukemia
[16] = test system: SF-539 CNS
[17] = test system: 786-0 renal
[18] = test system: NCI-H460 lung
[19] = test system: RXF 393 renal
[20] = test system: UACC-62 melanoma
[21] = test system: BT-549 breast
[22] = test system: SK-MEL-2 melanoma
[23] = test system: A498 renal
[24] = test system: CAKI-1 renal
[25] = test system: K-562 leukemia
[26] = test system: RPMI-8226 leukemia
[27] = test system: PC-3 prostate
[28] = test system: DU-145 prostate
[29] = test system: KM12 colon
[30] = test system: MDA-MB-231 breast
[31] = test system: SN12C renal
[32] = test system: HCC-2998 colon
[33] = test system: MCF7 breast
[34] = test system: U251 CNS
[35] = test system: UO-31 renal
[36] = test system: A549 NSCLC
[37] = test system: SK-OV-3 ovarian
[38] = test system: SK-MEL-28 melanoma
[39] = test system: SW-620 colon
[40] = test system: EKVX NSCLC
[41] = test system: HOP-62 NSCLC
[42] = test system: NCI-H522 lung
[43] = test system: SK-MEL-5 melanoma
[44] = test system: SNB-19 CNS
[45] = test system: TK-10 renal
[46] = test system: IGROV1 ovarian
[47] = test system: NCI/ADR-RES ovarian
[48] = test system: SF-295 CNS
[49] = test system: COLO 205 colon
[50] = test system: MALME-3M melanoma
[51] = test system: NCI-H23 lung
[52] = test system: HS 578T breast
[53] = test system: MDA-MB-435
[54] = test system: SF-268 CNS
[55] = test system: OVCAR-4 ovarian

Compound: CC(=O)Oc1cn(-c2ccc(Cl)cc2)nc1C1=NN(C(C)=O)C(c2ccc(F)cc2F)O1 (stereo not given)
- GI50 [1]: 18.5 µM
- TGI [1]: 94 µM
- GI50 [2]: 30.1 µM
- TGI [2]: > 100 µM
- GI50 [3]: 33.4 µM
- TGI [3]: > 100 µM
- GI50 [4]: 19.7 µM
- TGI [4]: 75.9 µM
- GI50 [5]: 44.4 µM
- TGI [5]: > 100 µM
- GI50 [6]: 34.6 µM
- TGI [6]: > 100 µM
- GI50 [7]: 27.2 µM
- TGI [7]: 81.6 µM
- GI50 [8]: 20.6 µM
- TGI [8]: 71.6 µM
- GI50 [9]: 31.4 µM
- TGI [9]: > 100 µM
- GI50 [10]: 67.3 µM
- TGI [10]: > 100 µM
- GI50 [11]: 32.2 µM
- TGI [11]: > 100 µM
- GI50 [12]: 40.1 µM
- TGI [12]: > 100 µM
- GI50 [13]: 44.3 µM
- TGI [13]: > 100 µM
- GI50 [14]: 35.8 µM
- TGI [14]: 85.4 µM
- GI50 [15]: 27.5 µM
- TGI [15]: > 100 µM
- GI50 [16]: 29.8 µM
- TGI [16]: > 100 µM
- GI50 [17]: 26.1 µM
- TGI [17]: 70.3 µM
- GI50 [18]: 34.4 µM
- TGI [18]: > 100 µM
- GI50 [19]: 23.9 µM
- TGI [19]: > 100 µM
- GI50 [20]: 28.8 µM
- TGI [20]: 96.3 µM
- GI50 [21]: 19.5 µM
- TGI [21]: 54.7 µM
- GI50 [22]: 74 µM
- TGI [22]: > 100 µM
- GI50 [23]: 29.1 µM
- TGI [23]: 66.4 µM
- GI50 [24]: 35.6 µM
- TGI [24]: 79.8 µM
- GI50 [25]: 30 µM
- TGI [25]: > 100 µM
- GI50 [26]: 20.5 µM
- TGI [26]: 54.8 µM
- GI50 [27]: 27.9 µM
- TGI [27]: > 100 µM
- GI50 [28]: 39.2 µM
- TGI [28]: > 100 µM
- GI50 [29]: 25.4 µM
- TGI [29]: 84.2 µM
- GI50 [30]: 30.4 µM
- TGI [30]: > 100 µM
- GI50 [31]: 33.6 µM
- TGI [31]: > 100 µM
- GI50 [32]: 35.7 µM
- TGI [32]: 55.3 µM
- GI50 [33]: 30 µM
- TGI [33]: > 100 µM
- GI50 [34]: 38.5 µM
- TGI [34]: > 100 µM
- GI50 [35]: 31.8 µM
- TGI [35]: > 100 µM
- GI50 [36]: 33.2 µM
- TGI [36]: > 100 µM
- GI50 [37]: 50.4 µM
- TGI [37]: > 100 µM
- GI50 [38]: 50.2 µM
- TGI [38]: > 100 µM
- GI50 [39]: 41.4 µM
- TGI [39]: > 100 µM
- GI50 [40]: 28.5 µM
- TGI [40]: 83 µM
- GI50 [41]: 36.2 µM
- TGI [41]: > 100 µM
- GI50 [42]: 45.6 µM
- TGI [42]: > 100 µM
- GI50 [43]: 18.4 µM
- TGI [43]: 38.4 µM
- GI50 [44]: 48.7 µM
- TGI [44]: > 100 µM
- GI50 [45]: 21.1 µM
- TGI [45]: 61.9 µM
- GI50 [46]: 13.4 µM
- TGI [46]: 76.2 µM
- GI50 [47]: 42.9 µM
- TGI [47]: > 100 µM
- GI50 [48]: 20.2 µM
- TGI [48]: 51.3 µM
- GI50 [49]: 42.7 µM
- TGI [49]: > 100 µM
- GI50 [50]: 14.8 µM
- TGI [50]: 63.5 µM
- GI50 [51]: 41.6 µM
- TGI [51]: > 100 µM
- GI50 [52]: 31.8 µM
- TGI [52]: 88.8 µM
- GI50 [53]: 27.9 µM
- TGI [53]: 89.5 µM
- GI50 [54]: 29.6 µM
- TGI [54]: > 100 µM
- GI50 [55]: 74.3 µM
- TGI [55]: > 100 µM
